The source of these data is patent US20260109713A1, “SIRTUIN MODULATING COMPOUNDS, INCLUDING SIRTUIN ACTIVATING COMPOUNDS, AND APPLICATIONS THEREOF” (CODAGEN BIOSCIENCES, INC., priority 2022, published 2026).

What all share (format): biochemical
Assay [1] deals with T1, hSIRT3 102-399 (Homo sapiens, UniProt Q9NTG7).
T1 construct: His-tag; purchased Enzo Life Sciences (Farmingdale, NY)
T1 sequence (Q9NTG7 102-399): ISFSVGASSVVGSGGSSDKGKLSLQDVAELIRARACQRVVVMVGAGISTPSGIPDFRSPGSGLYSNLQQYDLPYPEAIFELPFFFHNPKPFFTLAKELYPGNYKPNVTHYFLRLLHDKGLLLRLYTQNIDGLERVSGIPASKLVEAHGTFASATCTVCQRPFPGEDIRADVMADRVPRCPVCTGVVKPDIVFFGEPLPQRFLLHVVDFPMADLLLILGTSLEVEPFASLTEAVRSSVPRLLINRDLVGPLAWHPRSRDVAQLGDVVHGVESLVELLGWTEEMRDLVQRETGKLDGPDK
The assay is described as follows: HPLC assay of hSIRT3 102-399 deacetylation of MnSOD peptide, Conditions II (non-steady state): 50 μM NAD+, 600 μM peptide. As to conditions: for Conditions II, Effect: Conditions II (non-steady state); for Activity test, Conditions II, HPLC: Conditions II: 50 μM NAD+, 600 μM peptide, 10 μM compound, triplicate. As to the method: FIG. 5. Sirt3 activation by top ranked hit compounds.
The deacetylation activity of SIRT3 was detected in the presence of 10 μM compound of AA8AC40 under non-steady state condition (FIG. 5) using HPLC-based assay. […] The test compound is expected to experience three phases (presteady state, steady-state, and post steady state) during the enzymatic reaction. The pre and post-steady state can be considered as non-steady state, in which the enzyme concentration vs. NAD^+ substrate concentration ratio is high. Depending on the initial ratio of enzyme to limiting substrate in the system (and the ratio of enzyme to test compound concentration), the net effect of test compound over the course of the reaction can be either inhibitory or activating, with activation occurring if this ratio is above a threshold value.
Enzymatic reactions included either 1000 μM NAD^+ and 50 μM MnSOD peptide (Conditions I) or 50 μM NAD^+ and 600 μM peptide substrate (Conditions II) in presence of hit compounds (50 μM (Conditions I) or 10 μM (Conditions II)), in a HDAC buffer (50 mM TRIS-HCl, pH 8.0, containing 137 mM sodium chloride, 2.7 mM potassium chloride, and 1 mM magnesium chloride) dimethyl sulfoxide solution 95/5. […] The reaction was terminated by adding a stopping solution (final concentration of 2% TFA, 5 mM Nicotinamide). The peptide product and substrate were resolved using HPLC (reversed-phase C18 HPLC Column). Solvent A was composed of 90% HPLC grade water and 10% acetonitrile with 0.05% (v/v) TFA. Solvent B was composed of acetonitrile with 0.02% (v/v) TFA. […] Then returned to the starting conditions (0% B) within 5 min. Solvent A percentage (100%) was maintained at 100% for 5 additional minutes (36 min total run time).

The target in assay [2] is T1, hSIRT3 102-399. As to the kind of experiment: HPLC assay of hSIRT3 102-399 deacetylation of MnSOD peptide, Conditions I (steady state): 1000 μM NAD+, 50 μM MnSOD peptide. As to conditions: for Conditions I, Effect: Conditions I (steady state), HPLC/FdL; for Activity test, Conditions I, HPLC: Conditions I: 1000 μM NAD+, 50 μM MnSOD peptide, 50 μM compound, 30 min, triplicate, same values as % control in Table 3. As to the method:
[…] The peptide product and substrate were resolved using HPLC (reversed-phase C18 HPLC Column). Solvent A was composed of 90% HPLC grade water and 10% acetonitrile with 0.05% (v/v) TFA. Solvent B was composed of acetonitrile with 0.02% (v/v) TFA. […] Then returned to the starting conditions (0% B) within 5 min. Solvent A percentage (100%) was maintained at 100% for 5 additional minutes (36 min total run time).

Another assay addresses T2, hSIRT3 (Homo sapiens, UniProt Q9NTG7).
T2 construct: His-tag; purchased Enzo Life Sciences (Farmingdale, NY)
T2 sequence (Q9NTG7 102-399): T1 sequence (Q9NTG7 102-399)
As to the kind of experiment: Fluorescence-based SIRT3 deacetylation assay using FdL2 peptide, steady state (Conditions I). As to conditions: triplicate. The method, then:
FIG. 4. Effect of top ranked hit compounds on Sirt3 deacetylation activity.
The 6 top ranked compounds from DEL screening were tested modulation effect of SIRT3 using fluorescence-based assay (FIG. 4).
The enzymatic reactions were carried out similar to as described above. The reaction was terminated by adding the 1× developer 2 mM NAM solution and measured the fluorescence on TECAN microplate reader. The raw data were fitted to the defined model equations using GraphPad Prism (GraphPad Software, Inc, CA).

Each structure is given as a SMILES string.

For `Nc1nc2n(n1)C(c1ccc(OCc3ccccc3)cc1)CC(c1ccc(Cl)cc1)N2` (stereo not drawn) [FIG. 14], on hSIRT3 102-399 [1], the “Conditions II, Effect” value is “Activator” and the “Activity test, Conditions II, HPLC” value is 108.1. At hSIRT3 102-399 [2], the “Conditions I, Effect” value was “Slight Activator” and the “Activity test, Conditions I, HPLC” value is given as 106.7. At hSIRT3, the “Activity test, Conditions I, FdL” value is reported as 101.2.
For the compound `O=C1NCCN(C(=O)c2cccc(-c3cnn4ccccc34)c2)C1CCO` (stereo not drawn) [FIG. 227], at hSIRT3 102-399 [1], the “Conditions II, Effect” value was “Slight Activator” and the “Activity test, Conditions II, HPLC” value is given as 103.1. Besides, the “% Control in vitro modulation, Non-Steady state” value at hSIRT3 102-399 [1] (non-steady state, 10 μM modulator) was 103.1 % Control. Besides, on hSIRT3 102-399 [2], the “Conditions I, Effect” value is listed as “Inhibitor” and the “Activity test, Conditions I, HPLC” value amounted to 98.2. For the same compound, the “% Control in vitro modulation, Steady-state” value at hSIRT3 102-399 [2] (steady state, 10 μM modulator) is reported as 98.2 % Control. Further, the “Activity test, Conditions I, FdL” value at hSIRT3 was 88.1.
